In patent US20240108602A1, “TREATMENT OF MENTAL DISORDERS” (GH Research Ireland Limited, priority 2022, published 2024):
“And” between values parts separate entries of the source, which are not always exact repeats. Equal values may be shown once.

System: patients with treatment-resistant major depressive disorder (TRD)
Assay: Phase 1/2 clinical trial of inhaled 5-MeO-DMT in TRD patients (12 mg, 18 mg, individualized dosing regimen IDR 6/12/18 mg)
Protocol: Patients were assigned to different groups. In the context of the present invention, the group who received a single, 12 mg dose and the group who underwent an intra-day individualized dosing regimen (IDR) that allowed for multiple, escalating doses (6 mg, 12 mg and 18 mg) within a single day, driven by the intensity of the patient-reported psychedelic experience are of interest.
The data gathered include the assessment of the treated patients against several scales including the Montgomery-Åsberg Depression Rating Scale (MADRS) and the Brief Psychiatric Rating Scale (BPRS).
This trial was designed in two parts. Part A was an open-label, single-arm, single-dose Phase 1 trial with two dose levels (12 mg (n=4) and 18 mg (n=4)). […] The primary endpoint of Part B was to assess the effects on the severity of depression, as assessed by the proportion of patients in remission on day seven after dosing, defined as a MADRS total score of less than or equal to 10.

## COc1ccc2[nH]cc(CCN(C)C)c2c1 [5-MeO-DMT]
IDR n=8, 2 h
  MADRS Concentration Difficulties improvement (points): 19
  MADRS Concentration Difficulties percentage improvement: 63% and 63.33%
  MADRS Concentration Difficulties summed score: 11
  MADRS Inability to Feel improvement (points): 24
  MADRS Inability to Feel percentage improvement: 67% and 66.67%
  MADRS Inability to Feel summed score: 12
  MADRS Inner Tension improvement (points): 15
  MADRS Inner Tension percentage improvement: 58% and 57.69%
  MADRS Inner Tension summed score: 11
  MADRS Lassitude improvement (points): 17
  MADRS Lassitude percentage improvement: 63% and 62.96%
  MADRS Lassitude summed score: 10
  MADRS Pessimistic Thoughts improvement (points): 21
  MADRS Pessimistic Thoughts percentage improvement: 75%
  MADRS Pessimistic Thoughts summed score: 7
  MADRS Suicidal Thoughts improvement (points): 8
  MADRS Suicidal Thoughts percentage improvement: 73% and 72.72%
  MADRS Suicidal Thoughts summed score: 3
IDR n=8, 3 h
  BPRS Anxiety improvement (points): 18
  BPRS Anxiety percentage improvement: 49% and 48.65%
  BPRS Anxiety summed score: 19
  BPRS Blunted Affect improvement (points): 4
  BPRS Blunted Affect percentage improvement: 27% and 26.67%
  BPRS Blunted Affect summed score: 11
  BPRS Emotional Withdrawal improvement (points): 5
  BPRS Emotional Withdrawal percentage improvement: 38% and 38.46%
  BPRS Emotional Withdrawal summed score: 8
  BPRS Guilt Feelings improvement (points): 20
  BPRS Guilt Feelings percentage improvement: 59% and 58.82%
  BPRS Guilt Feelings summed score: 14
  BPRS Tension improvement (points): 5
  BPRS Tension percentage improvement: 31% and 31.25%
  BPRS Tension summed score: 11
IDR n=8, Day 1
  BPRS Anxiety improvement (points): 21
  BPRS Anxiety percentage improvement: 57% and 56.76%
  BPRS Anxiety summed score: 16
  BPRS Blunted Affect improvement (points): 7
  BPRS Blunted Affect percentage improvement: 47% and 46.67%
  BPRS Blunted Affect summed score: 8
  BPRS Emotional Withdrawal improvement (points): 5
  BPRS Emotional Withdrawal percentage improvement: 38% and 38.46%
  BPRS Emotional Withdrawal summed score: 8
  BPRS Guilt Feelings improvement (points): 23
  BPRS Guilt Feelings percentage improvement: 68% and 67.65%
  BPRS Guilt Feelings summed score: 11
  BPRS Tension improvement (points): 5
  BPRS Tension percentage improvement: 31% and 31.25%
  BPRS Tension summed score: 11
  MADRS Concentration Difficulties improvement (points): 29
  MADRS Concentration Difficulties percentage improvement: 97% and 96.67%
  MADRS Concentration Difficulties summed score: 1
  MADRS Inability to Feel improvement (points): 34
  MADRS Inability to Feel percentage improvement: 94% and 94.44%
  MADRS Inability to Feel summed score: 2
  MADRS Inner Tension improvement (points): 20
  MADRS Inner Tension percentage improvement: 77% and 76.92%
  MADRS Inner Tension summed score: 6
  MADRS Lassitude improvement (points): 22
  MADRS Lassitude percentage improvement: 81% and 81.48%
  MADRS Lassitude summed score: 5
  MADRS Pessimistic Thoughts improvement (points): 24
  MADRS Pessimistic Thoughts percentage improvement: 86% and 85.71%
  MADRS Pessimistic Thoughts summed score: 4
  MADRS Reduced Sleep improvement (points): 13
  MADRS Reduced Sleep percentage improvement: 52%
  MADRS Reduced Sleep summed score: 12
  MADRS Suicidal Thoughts improvement (points): 10
  MADRS Suicidal Thoughts percentage improvement: 91% and 90.91%
  MADRS Suicidal Thoughts summed score: 1
IDR n=8, Day 7
  BPRS Anxiety improvement (points): 20
  BPRS Anxiety percentage improvement: 54% and 54.05%
  BPRS Anxiety summed score: 17
  BPRS Blunted Affect improvement (points): 7
  BPRS Blunted Affect percentage improvement: 47% and 46.67%
  BPRS Blunted Affect summed score: 8
  BPRS Emotional Withdrawal improvement (points): 5
  BPRS Emotional Withdrawal percentage improvement: 38% and 38.46%
  BPRS Emotional Withdrawal summed score: 8
  BPRS Guilt Feelings improvement (points): 24
  BPRS Guilt Feelings percentage improvement: 71% and 70.59%
  BPRS Guilt Feelings summed score: 10
  BPRS Tension improvement (points): 6
  BPRS Tension percentage improvement: 38% and 37.50%
  BPRS Tension summed score: 10
  MADRS Concentration Difficulties improvement (points): 21
  MADRS Concentration Difficulties percentage improvement: 70%
  MADRS Concentration Difficulties summed score: 9
  MADRS Inability to Feel improvement (points): 30
  MADRS Inability to Feel percentage improvement: 83% and 83.33%
  MADRS Inability to Feel summed score: 6
  MADRS Inner Tension improvement (points): 14
  MADRS Inner Tension percentage improvement: 54% and 53.85%
  MADRS Inner Tension summed score: 12
  MADRS Lassitude improvement (points): 24
  MADRS Lassitude percentage improvement: 89% and 88.89%
  MADRS Lassitude summed score: 3
  MADRS Pessimistic Thoughts improvement (points): 25
  MADRS Pessimistic Thoughts percentage improvement: 89% and 89.29%
  MADRS Pessimistic Thoughts summed score: 3
  MADRS Reduced Sleep improvement (points): 16
  MADRS Reduced Sleep percentage improvement: 64%
  MADRS Reduced Sleep summed score: 9
  MADRS Suicidal Thoughts improvement (points): 8
  MADRS Suicidal Thoughts percentage improvement: 73% and 72.73%
  MADRS Suicidal Thoughts summed score: 3
IDR n=8, day seven
  patients with MADRS remission (primary endpoint): 87.5%
Part A
  SAEs reported: No SAEs
Part A and Part B
  safety laboratory analyses, vital signs, psychiatric safety assessments, measures of cognitive function: No clinically significant changes
Part A, in both groups (12 mg and 18 mg)
  patients who experienced at least one ADR: 3 of 4
Part B IDR
  SAEs reported: No SAEs
Part B IDR n=8
  patients who experienced at least one ADR: 87.5%
Day 1
  patients achieving remission (fraction): 8/8
Within 2 h after dosing
  patients achieving remission (fraction): ⅝
